Assays:
[1] = Solvolytic defluoridation of fluoridated organotrifluoroborates by 19F-NMR; type: physicochemical; conditions: 200 mM phosphate buffer pH 7.5, 19F NMR; for k(solvolysis): pseudo-first-order fit; for half-life: solvolytic defluoridation, read-out: half-life, t1/2
Description: The following is are representative examples of testing of solvolytic defluoridation of fluoridated organoborates as shown in FIG. 1A to FIG. 1FF and Table 1. Solutions of the fluoridated organotrifluoroborates were made by dissolving 30 mg of the fluoridated organotrifluoroborate into 1 mL of 20% ethanol/acetonitrile.
As the fluoridated organotrifluoroborate salts were often contaminated with a significant amount of free fluoride, a silica column was used to remove the free fluoride from the organotrifluoroborate solution. After loading the crude reaction onto the silica column, the fractions containing the desired organotrifluoroborate were eluted and combined to form a combined solution. In view of the strong stability of the fluoridated organotrifluoroborate in organic solvent, 20% of the combined solution was stored in an NMR tube and this sample served as the “zero” minute time point. A purified organotrifluoroborate salt was isolated from the remaining portion of the combined solution (remaining 80% of the combined solution) by removing the organic solvent from the combined solution by vacuum. Removal of the organic solvent from the combined solution gave the purified fluoridated alkylbornate salt in the form of a white solid. The dry and purified fluoridated organotrifluoroborate salt was re-dissolved into 3 mL of 200 mM phosphate buffer. Solvolytic defluoridation started immediately upon dissolution of the fluoridated organotrifluoroborate salt into phosphate buffer, and accordingly, the time was recorded at the moment of dissolution. The progress of solvolytic defluoridation of the fluoridated organotrifluoroborate salt was monitored using ^19F NMR spectroscopy. General principles, methods and background relating to the use of ^19F NMR spectroscopy for monitoring defluoridation are known, and may be found in, for example, Ting et al. (2008, J. Org. Chem. 73; 4662-70; Harwig et al. (2008) Tetrahedron Letters 49:3152-56; and Ting et al. (2008) Journal of Fluorine Chemistry 129:349-58. For each time point, solvolytic defluoridation data was collected using a 300 MHz ^19F NMR spectrometer (Bruker). ^19F NMR spectroscopic tracers for the fluoridated organotrifluoroborate salt at different times are shown in FIG. 1A. Use of ^19F-NMR to measure solvolytic defluoridation provides a useful model for measuring solvolytic 18F-defluoridation because if one F is lost, all are lost. Moreover, it is understood that the kinetic isotope effect in terms of B—F bond solvolysis is negligible. […] The degree of solvolytic defluoridation of the fluoridated organotrifluoroborate salt was plotted as a function of time, for example, as shown in FIG. 1B for Compound 6 of Table 1. ^19F NMR spectroscopic tracers for the fluoridated organotrifluoroborate salts of compounds listed in Table 1 at different times are shown in FIGS. 1A, 1C, 1E, 1G, 1I, 1K, 1M, 1O, 1Q, 1S, 1U, 1W, 1Y, 1AA, 1CC, and 1EE, and the degree of solvolytic defluoridation of the compounds as a function of time is shown in FIGS. 1B, 1D, 1F, 1H, 1J, 1L, 1N, 1P, 1R, 1T, 1V, 1X, 1ZZ, 1BB, 1DD, and 1FF.
The time curves shown in FIGS. 1B and 1D were fitted and a rate constant, ksolvolysis, for each time curve was calculated. As a measure of the stability of the fluoridated organoborate to solvolytic defluoridation, pkB—F values were calculated using the equation pkB—F=−log(ksolvolysis). In addition to pkB—F values, observed solvolytic defluoridation half-life, t1/2, values and rate constants, ksolvolysis, for a number of different fluoridated organoborates are listed in Table 1.

[2] = pKa of the carboxylic acid carrying the same moiety as the RBF3 compound; cited from earlier work
[3] = Stability of Rhodamine-BF3 conjugates in plasma by TLC; type: in vitro ADME, mice; conditions: tested as Rhodamine B conjugate, 37° C., 2 hours, fluorescence analysis
Description: The symbols A, B, C represent Rhodamine-ArBF3, Rhodamine-PyrBF3, and […] of Table 1, respectively. The subscript numbers 1, 2, 3 represent different test conditions: Plasma 1, Plasma 2 and PBS buffer (Plasma 1 and Plasma 2 were acquired from different mice).
The following is a representative example of testing of solvolytic defluoridation of a fluoridated organotrifluoroborate as shown in FIG. 3. 2 nmol Rhodamine-BF3 was added into 100 μL plasma, and then incubated at 37° C. After 2 hours, 200 μL acetonitrile (ACN) was added to precipitate the protein from the solution. The crude was filtered with 40 μm filter paper, and then a reddish purple solution was achieved. 1 μL of this solution was loaded on the TLC plate. The TLC plate was developed by 15% methanol/DCM. The TLC chromatograms for an aryltrifluoroborate (Rhodamine-ArBF3), Rhodamine-PyrBF3, and a quaternary ammoniomethyltrifluoroborate (Rhodamine-Compound 10 of Table 1) are shown as FIG. 3.
In the TLC chromatograms, Rhodamine B was conjugated with the trifluoroborate to trace the decomposition. The hydrolyzed product lost the negative charge, and therefore migrated much more rapidly than the precursor.

[4] = Stability of 18F-radiolabeled organotrifluoroborate in plasma by HPLC; type: in vitro ADME; conditions: 18F-labelled, 37° C., 150 mins, in vitro test n=3
Description: 1.1 mCi of ^18F-Compound 10 (^18F-ammoniomethyltrifluoroborate) was mixed with 100 μL of plasma to form a ^18F-Compound 10-plasma mixture, and then incubated at 37° C. for two hours. 200 uL of acetonitrile (ACN) was then added to the ^18F-Compound 10-plasma mixture to precipitate the protein from the mixture. The precipated protein portion was separated from the mixture by filtration with 40 μm filter paper, and the clear filtrate was injected into an HPLC for stability analysis. Chromatograms for independent HPLC tests of Rhodamine-Compound 10 of Table 1 at 0 minutes (A), 80 minutes (B), 150 minutes (C), 0 minutes (D), 150 minutes (E), and 150 minutes (F) are shown in FIG. 4A through FIG. 4F.

half-life [1] [h]	decomposition in plasma by HPLC [4]	SMILES	pk (solvolysis) = −log k(solvolysis) [1]	k(solvolysis) [1]	pKa of Corresponding COOH [2]	decomposition (hydrolyzed product) on TLC after incubation in plasma [3]
0.0383 to 0.05	–	CCCC[B-](F)(F)F [Compound 1, butyltrifluoroborate]	0.52	0.3 min − 1	4.81	–
0.117	–	C=C[B-](F)(F)F [Compound 2, vinyltrifluoroborate]	1.01	0.099 min − 1	4.25	–
2.42	–	F[B-](F)(F)COCc1ccccc1 [Compound 3]	2.32	0.00476 min − 1	3.53	–
11	–	F[B-](F)(F)CBr [Compound 4, bromomethyltrifluoroborate]	2.98	0.000768 min − 1	2.86	–
38.5	–	O=C(CCCCO)[B-](F)(F)F [Compound 5]	3.5249	0.000298 min − 1	2.5	–
65.5	–	CC[NH+](CC)C[B-](F)(F)F [Compound 6]	3.7554	0.000175 min − 1	2.34	–
–	–	O=C(c1ccccc1)[B-](F)(F)F [Compound 8, benzoytrifluoroborate]	4.0700	–	2.35	–
367	almost no decomposition was observed	C#CC[N+](C)(C)C[B-](F)(F)F [Compound 10]	4.5036	3.14 × 10^−5 min − 1	1.83	almost no hydrolyzed product was detected
2500	–	F[B-](F)(F)C(Cl)Cl [Compound 11]	5.3372	4.6 × 10^−5 min − 1	1.29	–
7670	–	C[S+](C[B-](F)(F)F)c1ccccc1 (stereo not shown) [Compound 12]	5.82	1.5 × 10^−5 min − 1	–	–
178	–	F[B-](F)(F)C[n+]1ccccc1 [Compound 14]	4.19	6.45 × 10^−5 min − 1	2.14	–
4.43	–	C[n+]1ccn(C[B-](F)(F)F)c1 [Compound 15]	2.59	0.00259 min − 1	–	–
172	–	COC(=O)C[N+](C)(C)C[B-](F)(F)F [Compound 16]	4.17	0.0000673 min − 1	–	–
5.77	–	C[N+](C)(CC(=O)O)C[B-](F)(F)F [Compound 17]	2.70	0.0020 min − 1	–	–
47	–	C#CC[N+](C)(C[B-](F)(F)F)C[B-](F)(F)F [Compound 18]	3.61	0.000246 min − 1	–	–

— patent US11207432B2, “Substituted organofluoroborates as imaging agents” (THE UNIVERSITY OF BRITISH COLUMBIA, priority 2013, dated 2021)
